Measured values: patent US20200261450A1, “6,7-DIHYDROPYRAZOLO[1,5-a]PYRAZIN-4(5H)-ONE COMPOUNDS AND THEIR USE AS NEGATIVE ALLOSTERIC MODULATORS OF MGLUR2 RECEPTORS” (Janssen Pharmaceutica NV, priority 2014, published 2020)
Like-named read-outs stand apart in the source and are kept apart here.

Experiments:
human mGlu2 receptor = biological target: T1, human mGlu2 receptor (Homo sapiens, UniProt Q14416); assay: [35S]GTPγS binding assay, mGluR2 negative allosteric modulation; format: biochemical; conditions: for Emax: maximal % inhibition relative to the control glutamate response, read-out: GTPγS-hmGluR2 anGT Emax; for IC50: membranes from CHO cells transfected with human mGlu2 receptor, glutamate 60 μM (~EC80), read-out: GTPγS-hmGluR2 anGT pIC50 (converted)
T1 construct: expressed in transfected cells; host or cells: CHO cells (membrane preparation)
Source text: Membrane-bound radioactivity was counted in a Topcount.

rats = assay: Reversal of the effect of the mGluR2 PAM JNJ-42153605-induced inhibition of scopolamine-induced hyperlocomotion; format: in vivo; conditions: Rattus norvegicus, criterion total distance >1500 cm, read-out: ED50 SCOP JNJ-42153605
Description: 2) Reversal of the Effect of the mGluR2 PAM JNJ-42153605-Induced Inhibition of Scopolamine-Induced Hyperlocomotion
Motor activity was measured in microprocessor-based motor activity arenas (closed gray PVC cylinders with a height of 39 cm and a diameter of 31 cm). Each arena was placed on an infrared LED (8×8 LEDs) lit box (white PVC squared box; 40×40 cm^2; height 12.5 cm. An infrared-sensitive tube camera and a white light source were mounted to the ceiling above the observation chamber to track the animal. The total distance traveled (cm) was recorded and analyzed using the Noldus Ethovision XT Video Tracking System (Version 7.0.418; Noldus, Wageningen, The Netherlands). The intensity of the light within the activity cages (measured in the centre at the level of the floor) ranged between 4 and 8 LUX.
The rats were pretreated with test compound or vehicle at 60 min before the start of the activity recordings and placed into individual cages. The rats were challenged with JNJ-42153605 (3-(cyclopropylmethyl)-7-(4-phenylpiperidin-1-yl)-8-(trifluoromethyl)[1,2,4]triazolo[4,3-a]pyridine; WO2010/130424; Cid et al. J. Med. Chem. 2012, 55, 8770-8789) (20 mg/kg, i.v.) 30 min before the start of the activity recording combined with scopolamine (0.16 mg/kg, i.v.) just before the start of the activity measurements. Immediately after the injection of scopolamine, the rats were placed into the activity monitors and total distance traveled over the first 30 min was measured.
Animals receiving the combination of JNJ-42153605 and scopolamine (n=433) almost always traveled a distance of less than 1500 cm (<1500 cm) (only 2.5% of the control rats traveled a distance of more than 1500 cm (>1500 cm)). On the other hand, animals challenged with scopolamine alone (n=215) always traveled a total distance of more than 1500 cm (>1500 cm) and almost always (in 95.8% of the rats) a distance of more than 4400 cm (>4400 cm). […] For reversal of the inhibitory effect of JNJ-42153605 on the scopolamine-induced hyperlocomotion, the following all-or-none criteria were adopted: (1) reversal: total distance >1500 cm.

Wiga Wistar rats = assay: Reversal of LY-404039-induced decrease of palpebral opening in apomorphine-challenged rats; format: in vivo; conditions: Rattus norvegicus, criterion cumulative palpebral opening score >26, read-out: ED50 APO LY-404039
Description: Male Wiga Wistar rats (Crl:WI; Charles River Germany; 220±40 g) were housed under standard laboratory conditions (21±2° C.; 50-65% relative humidity; light-dark cycle set at 12 h; lights on at 6.00 h) and fasted overnight prior to the start of the experiments (tap water remained available ad libitum). During the test period, they were housed in individual cages. Palpebral opening was scored every 5 min over the first hour after injection of apomorphine (1.0 mg/kg, i.v.) in animals either pretreated or not pretreated with LY-404039 (2.5 mg/kg, s.c.) at 1 h prior to the apomorphine injection. The animals were also pretreated with test compound or solvent at a predefined interval before apomorphine challenge. The score system was: (5) exophthalmos, (4) wide open, (3) open for three-quarters, (2) half open, (1) open for one-quarter, (0) closed. The scores for palpebral opening were cumulated over the 60-min observation period.
In animals receiving apomorphine alone the median palpebral opening is 43 whereas in animals receiving apomorphine and LY-404039, the median palpebral opening is 17.

Wiga rats = assay: Induction of mydriasis; format: in vivo; conditions: Rattus norvegicus, route PO, pupil diameter >25 units 1 h post-administration
Description: The pupil diameter of Wiga rats was measured with a microscopic micrometer (1 unit= 1/24 mm). Criteria for drug-induced effects: pupil diameter >25 units for mydriasis (in controls: 1.9%) 1 h post-administration of the test compound.

T1 sequence (Q14416 19-872): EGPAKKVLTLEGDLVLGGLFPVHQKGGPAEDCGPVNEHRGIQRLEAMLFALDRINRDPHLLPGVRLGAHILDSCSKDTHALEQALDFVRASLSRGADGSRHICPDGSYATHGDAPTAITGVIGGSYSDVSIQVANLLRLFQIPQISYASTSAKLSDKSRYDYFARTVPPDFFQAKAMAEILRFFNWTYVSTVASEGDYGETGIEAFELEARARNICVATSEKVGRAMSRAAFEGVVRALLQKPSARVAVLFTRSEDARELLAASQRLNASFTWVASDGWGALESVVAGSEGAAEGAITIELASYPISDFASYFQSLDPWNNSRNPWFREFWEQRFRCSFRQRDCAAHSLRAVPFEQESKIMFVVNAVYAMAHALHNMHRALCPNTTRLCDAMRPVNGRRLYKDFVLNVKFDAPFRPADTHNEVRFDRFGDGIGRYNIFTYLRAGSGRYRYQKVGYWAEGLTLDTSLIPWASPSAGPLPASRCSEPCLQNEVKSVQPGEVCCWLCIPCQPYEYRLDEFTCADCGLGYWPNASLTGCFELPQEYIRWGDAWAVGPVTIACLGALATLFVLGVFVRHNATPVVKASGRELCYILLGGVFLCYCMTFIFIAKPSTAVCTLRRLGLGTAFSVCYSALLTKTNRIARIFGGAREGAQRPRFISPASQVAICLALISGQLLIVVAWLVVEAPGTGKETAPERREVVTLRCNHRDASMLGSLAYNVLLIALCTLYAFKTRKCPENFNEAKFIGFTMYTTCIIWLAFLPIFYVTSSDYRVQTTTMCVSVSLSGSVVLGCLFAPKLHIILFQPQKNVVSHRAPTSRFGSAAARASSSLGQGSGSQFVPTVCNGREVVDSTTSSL

Row | Structure (SMILES) | Emax (human mGlu2 receptor) | IC50 (human mGlu2 receptor) | melting point | ED50 (rats; route PO) | ED50 (rats; route SC) | ED50 (Wiga Wistar rats; route PO) | ED50 (Wiga Wistar rats; route SC) | ED50 (Wiga rats)
1 | C[C@H]1CN(c2ccc(C(F)(F)F)c(Cl)c2)C(=O)c2c(-c3cc(-c4cncc(F)c4)no3)cnn21 [compound 14] | 105% | 5.89 nM | 181.56 °C |  |  |  |  | 
2 | Cc1ccncc1-c1cc(-c2cnn3c2C(=O)N(c2ccc(C(F)(F)F)c(Cl)c2)C[C@@H]3C)on1 [compound 15] | 110% | 1.2 nM | 149.26 °C | > 0.63 mg/kg |  |  |  | 
3 | Cc1cc(N2C[C@H](C)n3ncc(-c4cc(-c5cnccn5)no4)c3C2=O)ccc1C(F)(F)F [compound 21] | 109% | 7.08 nM | 150.37 °C | > 0.63 mg/kg |  |  |  | 
4 | C[C@H]1CN(c2ccc(C(F)(F)F)cc2)C(=O)c2c(-c3cc(-c4ccccc4)no3)cnn21 [compound 6] | 103% | 12.3 nM | 220.55 °C |  |  |  |  | 
5 | C[C@H]1CN(c2ccc(C(F)(F)F)c(Cl)c2)C(=O)c2c(-c3cc(-c4cnccn4)no3)cnn21 [compound 16] | 105% | 3.8 nM | 168.47 °C | > 0.63 mg/kg |  |  |  | 
6 | Cc1cc(-c2cnn3c2C(=O)N(c2ccc(C(F)(F)F)c(Cl)c2)C[C@@H]3C)on1 [compound 12] | 103% | 2.75 nM | 126.2 °C | 1.99 mg/kg |  |  |  | 
7 | C[C@H]1CN(c2ccc(C(F)(F)F)cc2)C(=O)c2c(-c3cc(-c4cnccn4)no3)cnn21 [compound 11] | 105% | 20 nM | 202.51 °C |  |  |  |  | 
8 | C[C@H]1CN(c2ccc(C(F)(F)F)c(Cl)c2)C(=O)c2c(-c3cc(-c4cccnc4)no3)cnn21 [Co. No. 4, (7S)-5-[3-Chloro-4-(trifluoromethyl)phenyl]-7-methyl-3-[3-(3-pyridyl)isoxazol-5-yl]-6,7-dihydropyrazolo[1,5-a]pyrazin-4-one] | 105% | 2.34 nM | 115.67 °C | 0.51 mg/kg |  |  |  | 
9 | C[C@H]1CN(c2ccc(C(F)(F)F)c(Cl)c2)C(=O)c2c(-c3cc(-c4ccccn4)no3)cnn21 [compound 13] | 107% | 7.24 nM | 159.08 °C | > 0.63 mg/kg |  |  |  | 
10 | C[C@H]1CN(c2ccc(C(F)(F)F)c(Cl)c2)C(=O)c2c(-c3cc(-c4ccc(N)nc4)no3)cnn21 [Co. No. 3, (7S)-3-[3-(6-Amino-3-pyridyl)isoxazol-5-yl]-5-[3-chloro-4-(trifluoromethyl)phenyl]-7-methyl-6,7-dihydropyrazolo[1,5-a]pyrazin-4-one] | 105% | 1.58 nM |  | 0.5 mg/kg |  |  |  | 
11 | Cc1cc(N2C[C@H](C)n3ncc(-c4cc(-c5ccccn5)no4)c3C2=O)ccc1C(F)(F)F [compound 17] | 107% | 10.2 nM | 171.97 °C | > 0.63 mg/kg |  |  |  | 
12 | C[C@H]1CN(c2ccc(C(F)(F)F)cc2)C(=O)c2c(-c3cc(-c4cncc(F)c4)no3)cnn21 [compound 9] | 108% | 11 nM | 180.17 °C |  |  |  |  | 
13 | Cc1ccncc1-c1cc(-c2cnn3c2C(=O)N(c2ccc(C(F)(F)F)cc2)C[C@@H]3C)on1 [compound 10] | 108% | 2.88 nM | 211.19 °C | > 0.63 mg/kg |  |  |  | 
14 | C[C@H]1CN(c2ccc(C(F)(F)F)cc2)C(=O)c2c(-c3cc(-c4ccc(N)nc4)no3)cnn21 [Co. No. 2, (7S)-3-[3-(6-Amino-3-pyridyl)isoxazol-5-yl]-7-methyl-5-[4-(trifluoromethyl)phenyl]-6,7-dihydropyrazolo[1,5-a]pyrazin-4-one] | 112% | 1.95 nM | 263.6 °C | 0.28 mg/kg | 0.3 mg/kg | 0.32 mg/kg | 0.2 mg/kg | 7.94 mg/kg
15 | C[C@H]1CN(c2ccc(C(F)(F)F)cc2)C(=O)c2c(-c3cc(N)no3)cnn21 [Co. No. 1, (7S)-3-(3-Aminoisoxazol-5-yl)-7-methyl-5-[4-(trifluoromethyl)phenyl]-6,7-dihydropyrazolo[1,5-a]pyrazin-4-one] | 100% | 490 nM |  |  |  |  |  | 
16 | Cc1cc(N2C[C@H](C)n3ncc(-c4cc(-c5cccnc5)no4)c3C2=O)ccc1C(F)(F)F [compound 18] | 109% | 3.24 nM | 143.97 °C | > 0.63 mg/kg |  |  |  | 
17 | Cc1ccncc1-c1cc(-c2cnn3c2C(=O)N(c2ccc(C(F)(F)F)c(C)c2)C[C@@H]3C)on1 [compound 20] | 109% | 2.14 nM | 172.39 °C | > 0.63 mg/kg |  |  |  | 
18 | Cc1cc(N2C[C@H](C)n3ncc(-c4cc(-c5cncc(F)c5)no4)c3C2=O)ccc1C(F)(F)F [compound 19] | 104% | 12.9 nM | 171.64 °C |  |  |  |  | 
19 | C[C@H]1CN(c2ccc(C(F)(F)F)cc2)C(=O)c2c(-c3cc(-c4cccnc4)no3)cnn21 [compound 8] | 105% | 12.9 nM | 186.15 °C |  |  |  |  | 
20 | C[C@H]1CN(c2ccc(C(F)(F)F)cc2)C(=O)c2c(-c3cc(-c4ccccn4)no3)cnn21 [compound 7] | 107% | 11.7 nM | 227.97 °C |  |  |  |  | 
21 | Cc1cc(-c2cnn3c2C(=O)N(c2ccc(C(F)(F)F)cc2)C[C@@H]3C)on1 [compound 5] | 102% | 16.6 nM | 161 °C | > 2.5 mg/kg |  |  |  | 
